Results published in the NIST ThermoML archive (doi:10.1016/j.jct.2019.06.029).

Assay: wn = mass fraction of the nth substance listed
Conditions: 100 kPa, Liquid; for viscosity: Falling or rolling sphere viscometry; for speed of sound: Frequency=3 MHz, Single path-length method; for mass density: Vibrating tube method

CCCC[n+]1ccc(C)cc1.[Br-] [1-butyl-4-methylpyridinium bromide] + O
Conditions | mass density, w1 = 0.01 [kg/m3] | mass density, w1 = 0.015 [kg/m3] | mass density, w1 = 0.02 [kg/m3] | speed of sound, w1 = 0.01 [m/s] | speed of sound, w1 = 0.015 [m/s] | speed of sound, w1 = 0.02 [m/s] | viscosity, w1 = 0.01 [mPa·s] | viscosity, w1 = 0.015 [mPa·s] | viscosity, w1 = 0.02 [mPa·s]
288.15 K | 1001.16 | 1002.26 | 1003.42 | 1472.7 | 1475.5 | 1478 | 1.165 | 1.176 | 1.195
293.15 K | 1000.23 | 1001.31 | 1002.47 | 1488.2 | 1490.8 | 1493.3 | 1.024 | 1.037 | 1.044
298.15 K | 999.051 | 1000.13 | 1001.26 | 1501.9 | 1504.1 | 1506.5 | 0.907 | 0.919 | 0.926
303.15 K | 997.647 | 998.68 | 999.765 | 1513.7 | 1515.7 | 1517 | 0.813 | 0.824 | 0.833
308.15 K | 996.019 | 996.958 | 998.102 | 1523.9 | 1525.8 | 1527.7 | 0.734 | 0.745 | 0.75

CCCCCC[n+]1ccc(C)cc1.[Br-] [1-hexyl-4-methylpyridinium bromide] + O
Conditions | mass density, w1 = 0.01 [kg/m3] | mass density, w1 = 0.015 [kg/m3] | mass density, w1 = 0.02 [kg/m3] | speed of sound, w1 = 0.01 [m/s] | speed of sound, w1 = 0.015 [m/s] | speed of sound, w1 = 0.02 [m/s] | viscosity, w1 = 0.01 [mPa·s] | viscosity, w1 = 0.015 [mPa·s] | viscosity, w1 = 0.02 [mPa·s]
288.15 K | 1000.9 | 1001.79 | 1002.56 | 1473.1 | 1476.5 | 1479.6 | 1.172 | 1.183 | 1.195
293.15 K | 999.956 | 1000.82 | 1001.8 | 1488.7 | 1491.6 | 1493.8 | 1.028 | 1.039 | 1.05
298.15 K | 998.796 | 999.636 | 1000.38 | 1502.2 | 1504.9 | 1507.5 | 0.913 | 0.924 | 0.934
303.15 K | 997.389 | 998.196 | 998.926 | 1514 | 1516.4 | 1518.9 | 0.817 | 0.824 | 0.834
308.15 K | 995.718 | 996.546 | 997.238 | 1524 | 1526.2 | 1528.6 | 0.738 | 0.746 | 0.753

CCCCCCCC[n+]1ccc(C)cc1.[Br-] [1-octyl-4-methylpyridinium bromide] + O
Conditions | mass density, w1 = 0.01 [kg/m3] | mass density, w1 = 0.015 [kg/m3] | mass density, w1 = 0.02 [kg/m3] | speed of sound, w1 = 0.01 [m/s] | speed of sound, w1 = 0.015 [m/s] | speed of sound, w1 = 0.02 [m/s] | viscosity, w1 = 0.01 [mPa·s] | viscosity, w1 = 0.015 [mPa·s] | viscosity, w1 = 0.02 [mPa·s]
288.15 K | 1000.54 | 1001.29 | 1002.09 | 1473.8 | 1477 | 1480.5 | 1.179 | 1.196 | 1.217
293.15 K | 999.566 | 1000.32 | 1001.1 | 1489.1 | 1492.2 | 1495.3 | 1.031 | 1.046 | 1.063
298.15 K | 998.379 | 999.123 | 999.874 | 1502.6 | 1505.3 | 1508.2 | 0.915 | 0.929 | 0.941
303.15 K | 996.945 | 997.706 | 998.407 | 1514.5 | 1516.7 | 1519.5 | 0.817 | 0.833 | 0.844
308.15 K | 995.3 | 996.048 | 996.742 | 1524.5 | 1526.4 | 1528.8 | 0.737 | 0.749 | 0.76

O [water] + CCCCCCCC[n+]1ccc(C)cc1.[Br-]
w2 = 0
Conditions | viscosity [mPa·s]
288.15 K | 1.136
293.15 K | 1.001
298.15 K | 0.89
303.15 K | 0.797
308.15 K | 0.718

O [water] + CCCCCC[n+]1ccc(C)cc1.[Br-]
w2 = 0
Conditions | viscosity [mPa·s]
288.15 K | 1.136
293.15 K | 1.001
298.15 K | 0.89
303.15 K | 0.797
308.15 K | 0.718

O [water] + CCCC[n+]1ccc(C)cc1.[Br-]
w2 = 0
Conditions | viscosity [mPa·s]
288.15 K | 1.136
293.15 K | 1.001
298.15 K | 0.89
303.15 K | 0.797
308.15 K | 0.718
